“Also recorded” adds a separate entry of the source.
Assays:
NB4 = test: CellTiter-Blue cell viability assay, NB4; type: cell-based, human; settings: 48 h, mean of triplicates
Experimental: Cell culture of leukemia cell lines model was performed as follows. HL60, K562, and NB4 cell lines were purchased from CLS Cell Line Service GmbH (Eppelheim, Germany). MV4-11 cell line was purchased from American Type Culture Collection (ATCC; Virginia, USA). KG1α also referred to as KG1a was a gift from Prof. Ghulam Mufti (King College London, UK). Kasumi-1 cell line was purchased from Nawah Scientific (Cairo, Egypt). All cell lines were cultured in Roswell Park Memorial Institute-1640 (RPMI-1640) culture medium supplemented with 10% fetal bovine serum (FBS) (Thermo Fisher Scientific) and 0.1% ciprofloxacin (10 μg/ml; Cipla Limited; Mumbai, India). Cells were maintained in a humidified incubator at 37° C. with 5% CO2.
Cell viability was determined using the CellTiter-Blue® Cell Viability Assay kit (Promega, Madison, WI, USA). Approximately […] were plated in 96 well plate in the presence of increasing drug concentration in triplicate and incubated for 48 h at 37° C. in a humidified incubator. After the incubation period, 20 μL of the cell titer blue reagent was added to each well and the plate was incubated for additional 2 h for the development of florescence. Florescence was measured at 540Ex/590Em on SpectraMax i3 Multi-Mode Microplate Reader (Molecular Devices, LLC; San Jose, CA, USA). […]

[1] = Binding to mouse plasma proteins (equilibrium dialysis); type: in vitro ADME
Experimental: Binding to mouse plasma proteins was determined as follows. The equilibrium dialysis method for determining plasma protein binding was performed using 96-well dialyzer plates with molecular weight cutoff of 5K (Harvard Apparatus, Holliston, MA) and a dual-plate rotator set to maximum speed (Harvard Apparatus, Holliston, MA) located in a 37° C. incubator with a 10% CO2-atmospheric environment. Assays were run in triplicate. The test compound was added to CD-1 mouse plasma (Innovative Research, Novi, MI, sodium heparin added as anticoagulant; pH adjusted to 7.4 with 2N HCl on day of use) in DMSO (final DMSO concentration 0.4%) to give 10 μM final concentration. Drug/plasma mixture and buffer (Dulbecco's phosphate-buffered saline 1× without calcium and magnesium, Mediatech, Inc., Herndon, VA) were placed in their respective sides, wells were capped, and the plate was placed in the rotator and allowed to dialyze for 22 h. […] Concentrations of analyte from each side of the dialysis plate were determined by LC/MS/MS on a Waters Xevo TQ instrument as described above using positive electrospray ionization. […] The fraction unbound was calculated by dividing the drug concentration in the buffer side of the dialysis plate by the drug concentration in the plasma side.

PC3 prostate cancer = settings: previous study (Khayat et al.); cited from earlier work
MCF7 breast cancer = settings: previous study (Khayat et al.); cited from earlier work
HCT116 CRC cells = settings: previous study (Khayat et al.); cited from earlier work
cell cycle = settings: concentration of 1 μM; previous study; cited from earlier work
caspase-3 = settings: concentration of 1 μM; previous study; cited from earlier work
[2] = previous study profiling; cited from earlier work
[3] = system: CYP450 metabolizing enzymes (3A4, 2D6, and 2C9); settings: previous study; cited from earlier work
HCT116 = test: Annexin V apoptosis assay (flow cytometry), HCT116; type: cell-based, human; settings: IC50 and 2×IC50, 48 h, vs basal conditions; dose dependent
Experimental: (§1) Apoptosis assay for colorectal carcinoma cell lines model was performed as follows. Cells were cultured in T25 culture flasks at a density of 3×10^5 cells for DLD-1, 4×10^5 cells for HCT116, and 5×10^5 cells for HT29 cells and treated with IC50 and 2×IC50 of compound (Id) for 48 h. The experiments were performed in triplicates. To measure apoptosis, an Annexin V APC staining assay (BD Biosciences, San Jose, CA, USA) was performed according to the manufacturer's recommendations, and 10,000 events were acquired using a FACSAria III flow cytometer (BD Biosciences, San Jose, CA, USA).

HT29 = test: Annexin V apoptosis assay (flow cytometry), HT29; type: cell-based, human; settings: IC50 and 2×IC50, 48 h, vs basal conditions; dose dependent
Experimental: as §1

HL60 = test: Annexin V/7AAD apoptosis assay, HL60; type: cell-based, human; settings: approximately 2×IC50, 48 h
Experimental: (§2) Apoptosis assay for leukemia cells was performed as follows. Cells were cultured in 6-well plates at a density of 3× 10^5 cells per well and treated with approximately 2×IC50 values of compound (Id) for 48 h. The experiments were performed in duplicates. To measure apoptosis, Annexin V APC and 7AAD staining (BD Biosciences, San Jose, CA, USA) was performed according to the manufacturer's recommendations, and 10,000 events were acquired using a FACSCanto flow cytometer (BD Biosciences, San Jose, CA, USA).

MV4-11 = test: Annexin V/7AAD apoptosis assay, MV4-11; type: cell-based, human; settings: approximately 2×IC50, 48 h
Experimental: as §2

K562 = test: Annexin V/7AAD apoptosis assay, K562; type: cell-based, human; settings: approximately 2×IC50, 48 h
Experimental: as §2

Kasumi-1 = test: Annexin V/7AAD apoptosis assay, Kasumi-1; type: cell-based, human; settings: approximately 2×IC50, 48 h
Experimental: as §2

KG1α = test: Annexin V/7AAD apoptosis assay, KG1α; type: cell-based, human; settings: approximately 2×IC50, 48 h
Experimental: as §2

Structure (SMILES): COc1ccc(/C=C2\N=C(C)N(c3ccc(CC(=O)NCc4ccccc4)cc3)C2=O)cc1 [KIM-161, reference compound]
- IC50 (NB4): 148 nM
- Mouse PPB (% free) ([1]; 10 μM, equilibrium dialysis 22 h): 5%
- IC50 (PC3 prostate cancer): 2140 nM
- IC50 (MCF7 breast cancer): 1140 nM
- IC50 (HCT116 CRC cells): 294 nM
- effect on cell cycle (cell cycle): cell cycle arrest at pre-G and G2/M phases
- apoptosis (caspase-3): promoted apoptosis through activation of caspase-3
- maximum aqueous solubility [2]: 19.9 µM
- substrate for major CYP450 metabolizing enzymes (3A4, 2D6, and 2C9) [3]: not a substrate

Structure (SMILES): CC1=N/C(=C\c2ccc(C)o2)C(=O)N1c1ccc(CC(=O)NCc2ccccc2)cc1 [Compound (Id), 2-Methyl-4-(5-methyl-2-furyl)methylene-1-[4-(benzylaminocarbonylmethyl)phenyl]-5-oxo-1H-imidazole]
- IC50 (NB4; Homo sapiens, NB-4): 189 nM
- apoptosis in HCT116 cells (HCT116): increased apoptosis
- apoptosis in HT29 cells (HT29): increased apoptosis
- apoptosis in HL60 cells (HL60): strong apoptosis
- apoptosis in MV4-11 cells (MV4-11): strong apoptosis
- apoptosis in K562 cells (K562): strong apoptosis
- apoptosis in Kasumi-1 cells (Kasumi-1): strong apoptosis; also recorded: very strong induction of apoptosis
- apoptosis in KG1α cells (KG1α): strong apoptosis
- fraction unbound at 22 h, 10 μM ([1]; CD-1, mouse, plasma, pH 7.4, equilibrium dialysis 22 h, read-out: Mouse PPB (% free)): 0.032

Reference: patent US20250282764A1, “IMIDAZOLE HETEROCYCLE BASED COMPOUNDS AND METHODS OF TREATING CANCER” (King Abdulaziz University, priority 2024, published 2025)
